Key:
[1] = test system: ABUTH (Abutilon theophrasti); assay: Postemergence herbicidal evaluation; format: in vivo, Medic.
In short: (§1)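 Seedlings grown about two weeks in flats, sprayed, then kept under standard greenhouse care. Rated visually 4–5 weeks after treatment on a 0–9 scale (stand, vigour, malformation, size, chlorosis, overall appearance) relative to untreated control; repeat tests averaged.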

[2] = test system: CHEAL (Chenopodium album); assay: Preemergence herbicidal evaluation; format: in vivo, L.; settings: preemergence, rated 4-5 weeks after treatment
In short: (§2)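 Scores (0–9) reflect visual comparison with control plants for stand, vigor, malformation, size and chlorosis. Seeds in potting soil received a post-planting spray of compound in aqueous acetone and grew in a greenhouse until assessment 4–5 weeks later.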

[3] = test system: AMBEL (Ambrosia artemisifolia); assay: Preemergence herbicidal evaluation; format: in vivo, L.; settings: preemergence, rated 4-5 weeks after treatment
In short: as §2

[4] = test system: CASOB (Cassia obtusifolia); assay: Preemergence herbicidal evaluation; format: in vivo, L.; settings: preemergence, rated 4-5 weeks after treatment
In short: as §2

[5] = test system: MOOVA (Monochoria vaginalis); assay: Flooded paddy, preemergence weed control; format: in vivo, Presl.; settings: rated 3-4 weeks after treatment, 0-9 rating scale
In short: (§3)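 Visual 0–9 ratings versus controls scored stand, vigor, malformation, size, chlorosis and overall appearance. Plants grew from seeds or propagating organs sown 0.5 cm deep in silt loam, with water held 1.5–3 cm above the soil for the whole test under greenhouse care.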

[6] = test system: IPOHE (Ipomoea hederacea); assay: Postemergence herbicidal evaluation; format: in vivo, (L.) Jacq.
In short: as §1

ORYSAT (Rice, Tebonnet) [7] = assay: Flooded paddy, post-transplant rice tolerance; format: in vivo, Oryza sativa, (L.) Tebonnet; settings: flooded paddy, post-transplant rice, rated 3-4 weeks after treatment, 0-9 rating scale
In short: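 Two ten-day-old seedlings were transplanted into silt loam, flooded and held at 1.5 to 3 cm water above the soil before herbicide treatment. Pots stayed in the greenhouse at that water level. Injury was scored visually on a 0-9 scale versus untreated control.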

GALAP (Galium aparine) = assay: Postemergence herbicidal evaluation; format: in vivo
In short: as §1

ZEAMX (Corn, Field) = assay: Postemergence herbicidal evaluation; format: in vivo, Zea mays, L.
In short: as §1

CYPIR (Cyperus iria) = assay: Flooded paddy, preemergence weed control; format: in vivo; settings: rated 3-4 weeks after treatment, 0-9 rating scale
In short: as §3

SETVI (Setaria viridis) [8] = assay: Postemergence herbicidal evaluation; format: in vivo, (L.) Beau
In short: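 Postemergence foliar spray on two-week-old seedlings, dose equivalent to about 0.0040 to 1.000 kg/ha. Ratings use a 0-9 visual scale relative to control at four to five weeks.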

[9] = test system: SAGPY (Sagittaria pygmaea); assay: Flooded paddy, preemergence weed control; format: in vivo, L.; settings: rated 3-4 weeks after treatment, 0-9 rating scale
In short: as §3

ORYSAT (Rice, Tebonnet) [10] = assay: Preemergence herbicidal evaluation; format: in vivo, Oryza sativa, (L.) Tebonnet; settings: preemergence, rated 4-5 weeks after treatment
[11] = test system: IPOHE (Ipomoea hederacea); assay: Preemergence herbicidal evaluation; format: in vivo, (L.) Jacq.; settings: preemergence, rated 4-5 weeks after treatment
[12] = test system: GLXMAW (Soybean, Williams); assay: Postemergence herbicidal evaluation; format: in vivo, Glycine max, (L.) Merr. cv Williams
In short: as §1

[13] = test system: ECHCG (Echinochloa crus-galli); assay: Preemergence herbicidal evaluation; format: in vivo, (L.) Beau; settings: preemergence, rated 4-5 weeks after treatment
In short: as §2

SETVI (Setaria viridis) [14] = assay: Preemergence herbicidal evaluation; format: in vivo, (L.) Beau; settings: preemergence, rated 4-5 weeks after treatment
In short: as §2

ORYSAT (Rice, Tebonnet) [15] = assay: Postemergence herbicidal evaluation; format: in vivo, Oryza sativa, (L.) Tebonnet
In short: as §1

[16] = test system: ECHORC (Echinochloa oryzoides); assay: Flooded paddy, preemergence weed control; format: in vivo, Echinochloa oryzoides (Ard.) Fritsch.; settings: rated 3-4 weeks after treatment, 0-9 rating scale
In short: as §3

[17] = test system: ECHCG (Echinochloa crus-galli); assay: Postemergence herbicidal evaluation; format: in vivo, (L.) Beau
In short: as §1

Structure (SMILES): Cc1ccsc1-c1nsc2ccc(-n3c(=O)cc(C(F)(F)F)n(C)c3=O)cc12 [Compound 4, 1-methyl-3-[3-(3-methyl-2-thienyl)-1,2-benzisothiazol-5-yl]-6-(trifluoromethyl)uracil]
- Postemergence herbicidal rating, ABUTH ([1]; rate 0.0320 kg/ha): 9.0
- Postemergence herbicidal rating, ABUTH ([1]; rate 0.0620 kg/ha): 9.0
- Postemergence herbicidal rating, ABUTH ([1]; rate 0.1250 kg/ha): 9.0
- CHEAL preemergence herbicidal rating ([2]; Rate 0.0620 kg/ha): 9.0
- CHEAL preemergence herbicidal rating ([2]; Rate 0.1250 kg/ha): 9.0
- CHEAL preemergence herbicidal rating ([2]; Rate 0.2500 kg/ha): 8.0
- AMBEL preemergence herbicidal rating ([3]; Rate 0.0620 kg/ha): 5.9
- AMBEL preemergence herbicidal rating ([3]; Rate 0.1250 kg/ha): 7.3
- AMBEL preemergence herbicidal rating ([3]; Rate 0.2500 kg/ha): 8.9
- CASOB preemergence herbicidal rating ([4]; Rate 0.0620 kg/ha): 1.3
- CASOB preemergence herbicidal rating ([4]; Rate 0.1250 kg/ha): 3.4
- CASOB preemergence herbicidal rating ([4]; Rate 0.2500 kg/ha): 5.0
- herbicidal rating, MOOVA ([5]; rate 0.0080 kg/ha): 9.0
- herbicidal rating, MOOVA ([5]; rate 0.0320 kg/ha): 9.0
- herbicidal rating, MOOVA ([5]; rate 0.1250 kg/ha): 9.0
- Postemergence herbicidal rating, IPOHE ([6]; rate 0.0320 kg/ha): 8.6
- Postemergence herbicidal rating, IPOHE ([6]; rate 0.0620 kg/ha): 9.0
- Postemergence herbicidal rating, IPOHE ([6]; rate 0.1250 kg/ha): 9.0
- herbicidal rating, ORYSAT (rice tolerance) (ORYSAT (Rice, Tebonnet) [7]; rate 0.0080 kg/ha): 2.0
- herbicidal rating, ORYSAT (rice tolerance) (ORYSAT (Rice, Tebonnet) [7]; rate 0.0320 kg/ha): 3.5
- herbicidal rating, ORYSAT (rice tolerance) (ORYSAT (Rice, Tebonnet) [7]; rate 0.1250 kg/ha): 4.0
- Postemergence herbicidal rating, GALAP (GALAP (Galium aparine); rate 0.0320 kg/ha): 3.3
- Postemergence herbicidal rating, GALAP (GALAP (Galium aparine); rate 0.0620 kg/ha): 6.0
- Postemergence herbicidal rating, GALAP (GALAP (Galium aparine); rate 0.1250 kg/ha): 8.3
- Postemergence herbicidal rating, ZEAMX (ZEAMX (Corn, Field); rate 0.0320 kg/ha): 4.4
- Postemergence herbicidal rating, ZEAMX (ZEAMX (Corn, Field); rate 0.0620 kg/ha): 4.5
- Postemergence herbicidal rating, ZEAMX (ZEAMX (Corn, Field); rate 0.1250 kg/ha): 5.0
- herbicidal rating, CYPIR (CYPIR (Cyperus iria); rate 0.0080 kg/ha): 2.0
- herbicidal rating, CYPIR (CYPIR (Cyperus iria); rate 0.0320 kg/ha): 9.0
- herbicidal rating, CYPIR (CYPIR (Cyperus iria); rate 0.1250 kg/ha): 9.0
- Postemergence herbicidal rating, SETVI (SETVI (Setaria viridis) [8]; rate 0.0320 kg/ha): 5.0
- Postemergence herbicidal rating, SETVI (SETVI (Setaria viridis) [8]; rate 0.0620 kg/ha): 6.3
- Postemergence herbicidal rating, SETVI (SETVI (Setaria viridis) [8]; rate 0.1250 kg/ha): 7.3
- herbicidal rating, SAGPY ([9]; rate 0.0080 kg/ha): 0.0
- herbicidal rating, SAGPY ([9]; rate 0.0320 kg/ha): 2.0
- herbicidal rating, SAGPY ([9]; rate 0.1250 kg/ha): 5.5
- ORYSAT preemergence herbicidal rating (ORYSAT (Rice, Tebonnet) [10]; Rate 0.0620 kg/ha): 1.4
- ORYSAT preemergence herbicidal rating (ORYSAT (Rice, Tebonnet) [10]; Rate 0.1250 kg/ha): 1.9
- ORYSAT preemergence herbicidal rating (ORYSAT (Rice, Tebonnet) [10]; Rate 0.2500 kg/ha): 2.8
- IPOHE preemergence herbicidal rating ([11]; Rate 0.0620 kg/ha): 4.7
- IPOHE preemergence herbicidal rating ([11]; Rate 0.1250 kg/ha): 6.3
- IPOHE preemergence herbicidal rating ([11]; Rate 0.2500 kg/ha): 7.6
- Postemergence herbicidal rating, GLXMAW ([12]; rate 0.0320 kg/ha): 6.2
- Postemergence herbicidal rating, GLXMAW ([12]; rate 0.0620 kg/ha): 6.8
- Postemergence herbicidal rating, GLXMAW ([12]; rate 0.1250 kg/ha): 7.3
- ECHCG preemergence herbicidal rating ([13]; Rate 0.0620 kg/ha): 7.0
- ECHCG preemergence herbicidal rating ([13]; Rate 0.1250 kg/ha): 8.3
- ECHCG preemergence herbicidal rating ([13]; Rate 0.2500 kg/ha): 9.0
- SETVI preemergence herbicidal rating (SETVI (Setaria viridis) [14]; Rate 0.0620 kg/ha): 8.8
- SETVI preemergence herbicidal rating (SETVI (Setaria viridis) [14]; Rate 0.1250 kg/ha): 9.0
- SETVI preemergence herbicidal rating (SETVI (Setaria viridis) [14]; Rate 0.2500 kg/ha): 9.0
- Postemergence herbicidal rating, ORYSAT (ORYSAT (Rice, Tebonnet) [15]; rate 0.0320 kg/ha): 2.8
- Postemergence herbicidal rating, ORYSAT (ORYSAT (Rice, Tebonnet) [15]; rate 0.0620 kg/ha): 3.8
- Postemergence herbicidal rating, ORYSAT (ORYSAT (Rice, Tebonnet) [15]; rate 0.1250 kg/ha): 4.5
- herbicidal rating, ECHORC ([16]; rate 0.0080 kg/ha): 4.0
- herbicidal rating, ECHORC ([16]; rate 0.0320 kg/ha): 9.0
- herbicidal rating, ECHORC ([16]; rate 0.1250 kg/ha): 9.0
- Postemergence herbicidal rating, ECHCG ([17]; rate 0.0320 kg/ha): 2.0
- Postemergence herbicidal rating, ECHCG ([17]; rate 0.0620 kg/ha): 2.8
- Postemergence herbicidal rating, ECHCG ([17]; rate 0.1250 kg/ha): 1.7
